According to patent US20260183295A1, “METHODS AND COMPOSITIONS FOR TREATING CANCER” (Onconova Therapeutics, Inc., priority 2022, published 2026):

What was measured:
Format in all cases: cell-based
CELF1 = molecular target: T1, CELF1 (Homo sapiens, UniProt Q92879); experiment: CETSA-MS, MDA-MB-231 intact cells; settings: 2 μM and 20 μM
T1 construct: endogenous in cells; host or cells: MDA-MB-231
Description: (§1) TNBC MDA-MB-231 cells were grown at 37° C. in 5% CO2 and suspended in warm media and split into 4 equal volumes. […] Cells were incubated and then pelleted. Following pelleting, the cells were washed, resuspended, and heated in a thermal gradient. Following heating, the samples were flash frozen and lysed in lysis buffer, agitated by vortex, and sonicated prior to centrifugation. The supernatant was collected and denaturation buffer added. Cold acetone was then added to the cell samples, and protein collected by centrifugation. Pellets were then washed twice with cold acetone and the washed pellets prior to labeling.
(§2) The intact cell protein samples and lysate protein samples were then digested and labeled for mass spectrometry analysis according to the manufacturer's recommended protocols. Digested and labeled protein samples were analyzed by mass spectrometry proteomic analysis and the resulting protein targets were analyzed and plotted.

CLPP = molecular target: T2, CLPP (Homo sapiens, UniProt Q16740); experiment: CETSA-MS, MDA-MB-231 intact cells; settings: 2 μM and 20 μM
T2 construct: endogenous in cells; host or cells: MDA-MB-231
T2 sequence (Q16740 57-277): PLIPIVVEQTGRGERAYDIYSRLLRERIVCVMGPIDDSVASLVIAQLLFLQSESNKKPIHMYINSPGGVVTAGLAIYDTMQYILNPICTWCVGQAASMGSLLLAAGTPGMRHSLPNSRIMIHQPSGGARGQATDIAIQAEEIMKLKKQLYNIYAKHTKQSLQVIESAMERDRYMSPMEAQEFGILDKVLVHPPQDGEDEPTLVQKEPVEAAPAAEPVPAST
Description: as §1, §2

CPD = molecular target: T3, CPD (Homo sapiens, UniProt O75976); experiment: CETSA-MS, MDA-MB-231 intact cells; settings: 2 μM and 20 μM
T3 construct: 148 targets unique to Compound 1 in MDA-MB-231 intact cells; endogenous in cells; host or cells: MDA-MB-231
Description: as §1, §2

ELL = molecular target: T4, ELL (Homo sapiens, UniProt P55199); experiment: CETSA-MS, MDA-MB-231 intact cells; settings: 2 μM and 20 μM
T4 construct: 148 targets unique to Compound 1 in MDA-MB-231 intact cells; endogenous in cells; host or cells: MDA-MB-231
T4 sequence (P55199 whole entry): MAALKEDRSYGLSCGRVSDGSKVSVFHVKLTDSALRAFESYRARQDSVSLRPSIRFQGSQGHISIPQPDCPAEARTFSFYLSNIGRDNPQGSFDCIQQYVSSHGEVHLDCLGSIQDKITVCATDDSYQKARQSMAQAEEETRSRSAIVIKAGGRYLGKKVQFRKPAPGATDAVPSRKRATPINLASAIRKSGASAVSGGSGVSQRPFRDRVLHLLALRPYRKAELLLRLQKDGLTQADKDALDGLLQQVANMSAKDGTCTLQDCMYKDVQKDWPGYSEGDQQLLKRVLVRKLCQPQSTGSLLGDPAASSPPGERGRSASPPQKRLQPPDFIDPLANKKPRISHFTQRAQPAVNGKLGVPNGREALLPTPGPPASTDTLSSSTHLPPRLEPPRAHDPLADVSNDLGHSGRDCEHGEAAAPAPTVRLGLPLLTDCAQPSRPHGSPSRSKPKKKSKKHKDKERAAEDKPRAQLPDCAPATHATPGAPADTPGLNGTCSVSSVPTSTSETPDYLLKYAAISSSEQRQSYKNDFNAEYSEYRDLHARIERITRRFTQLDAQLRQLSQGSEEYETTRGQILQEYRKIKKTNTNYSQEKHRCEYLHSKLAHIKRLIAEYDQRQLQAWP
Description: as §1, §2

FGFRL1 = molecular target: T5, FGFRL1 (Homo sapiens, UniProt Q8N441); experiment: CETSA-MS, MDA-MB-231 intact cells; settings: 2 μM and 20 μM
T5 construct: 148 targets unique to Compound 1 in MDA-MB-231 intact cells; endogenous in cells; host or cells: MDA-MB-231
Description: as §1, §2

GSK3A = molecular target: T6, GSK3A (Homo sapiens, UniProt P49840); experiment: CETSA-MS, MDA-MB-231 intact cells; settings: 2 μM and 20 μM
T6 construct: endogenous in cells; host or cells: MDA-MB-231
Description: as §1, §2

HNRNPA2B1 = molecular target: T7, HNRNPA2B1 (Homo sapiens, UniProt P22626); experiment: CETSA-MS, MDA-MB-231 intact cells; settings: 2 μM and 20 μM
T7 construct: 148 targets unique to Compound 1 in MDA-MB-231 intact cells; endogenous in cells; host or cells: MDA-MB-231
Description: as §1, §2

HNRNPC = molecular target: T8, HNRNPC (Homo sapiens, UniProt P07910); experiment: CETSA-MS, MDA-MB-231 intact cells; settings: 2 μM and 20 μM
T8 construct: 148 targets unique to Compound 1 in MDA-MB-231 intact cells; endogenous in cells; host or cells: MDA-MB-231
Description: as §1, §2

MAMDC2 = molecular target: T9, MAMDC2 (Homo sapiens, UniProt Q7Z304); experiment: CETSA-MS, MDA-MB-231 intact cells; settings: 2 μM and 20 μM
T9 construct: endogenous in cells; host or cells: MDA-MB-231
T9 sequence (Q7Z304 19-686): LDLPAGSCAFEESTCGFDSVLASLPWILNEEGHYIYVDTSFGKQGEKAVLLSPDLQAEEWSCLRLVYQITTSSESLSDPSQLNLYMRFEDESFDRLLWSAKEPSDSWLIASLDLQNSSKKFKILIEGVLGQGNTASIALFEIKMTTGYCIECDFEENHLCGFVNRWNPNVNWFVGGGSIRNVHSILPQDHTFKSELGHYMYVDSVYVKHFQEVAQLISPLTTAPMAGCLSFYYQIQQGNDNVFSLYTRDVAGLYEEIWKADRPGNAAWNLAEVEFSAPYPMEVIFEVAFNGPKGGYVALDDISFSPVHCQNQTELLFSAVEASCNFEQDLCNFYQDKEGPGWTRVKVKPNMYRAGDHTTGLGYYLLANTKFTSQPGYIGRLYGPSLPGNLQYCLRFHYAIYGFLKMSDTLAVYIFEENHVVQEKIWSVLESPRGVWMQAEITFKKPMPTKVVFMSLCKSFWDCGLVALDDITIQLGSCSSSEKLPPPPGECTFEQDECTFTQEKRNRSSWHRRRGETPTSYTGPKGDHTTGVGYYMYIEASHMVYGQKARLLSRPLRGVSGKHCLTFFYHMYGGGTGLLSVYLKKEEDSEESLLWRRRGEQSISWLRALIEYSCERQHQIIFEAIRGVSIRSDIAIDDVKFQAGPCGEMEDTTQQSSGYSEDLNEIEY
Description: as §1, §2

MAN2A1 = molecular target: T10, MAN2A1 (Homo sapiens, UniProt Q16706); experiment: CETSA-MS, MDA-MB-231 intact cells; settings: 2 μM and 20 μM
T10 construct: endogenous in cells; host or cells: MDA-MB-231
T10 sequence (Q16706 whole entry): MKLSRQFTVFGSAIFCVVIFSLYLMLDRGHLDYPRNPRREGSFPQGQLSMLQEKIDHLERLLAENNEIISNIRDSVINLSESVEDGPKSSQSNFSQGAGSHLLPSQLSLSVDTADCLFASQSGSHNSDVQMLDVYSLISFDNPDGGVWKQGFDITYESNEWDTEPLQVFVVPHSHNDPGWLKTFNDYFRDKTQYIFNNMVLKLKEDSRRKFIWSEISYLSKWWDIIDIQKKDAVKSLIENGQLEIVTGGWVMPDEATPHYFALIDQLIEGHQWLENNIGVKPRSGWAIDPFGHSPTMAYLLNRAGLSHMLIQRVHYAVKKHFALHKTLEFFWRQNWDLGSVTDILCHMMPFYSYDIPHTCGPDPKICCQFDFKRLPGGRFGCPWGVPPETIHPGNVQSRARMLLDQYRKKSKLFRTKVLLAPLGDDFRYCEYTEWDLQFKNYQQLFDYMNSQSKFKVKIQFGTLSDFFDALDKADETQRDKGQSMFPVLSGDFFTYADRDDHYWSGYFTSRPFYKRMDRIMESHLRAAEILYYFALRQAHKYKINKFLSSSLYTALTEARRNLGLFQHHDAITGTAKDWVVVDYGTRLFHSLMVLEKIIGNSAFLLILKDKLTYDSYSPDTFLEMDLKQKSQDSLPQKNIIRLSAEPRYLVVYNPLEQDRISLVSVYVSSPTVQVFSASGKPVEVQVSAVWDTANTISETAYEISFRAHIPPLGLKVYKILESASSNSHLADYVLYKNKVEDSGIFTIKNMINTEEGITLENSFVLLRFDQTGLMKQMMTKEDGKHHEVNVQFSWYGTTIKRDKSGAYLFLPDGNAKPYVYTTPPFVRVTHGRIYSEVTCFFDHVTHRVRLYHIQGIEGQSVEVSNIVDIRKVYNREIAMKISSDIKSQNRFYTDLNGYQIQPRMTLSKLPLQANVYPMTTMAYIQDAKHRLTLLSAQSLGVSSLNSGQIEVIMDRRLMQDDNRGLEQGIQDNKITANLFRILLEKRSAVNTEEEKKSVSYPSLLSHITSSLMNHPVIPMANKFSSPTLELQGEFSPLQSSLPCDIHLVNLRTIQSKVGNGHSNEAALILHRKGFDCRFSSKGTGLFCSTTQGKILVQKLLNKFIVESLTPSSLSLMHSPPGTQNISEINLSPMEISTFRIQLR
Description: as §1, §2

MAP3K20 = molecular target: T11, MAP3K20 (Homo sapiens, UniProt Q9NYL2); experiment: CETSA-MS, MDA-MB-231 intact cells; settings: 2 μM and 20 μM
T11 construct: endogenous in cells; host or cells: MDA-MB-231
Description: as §1, §2

RPS6KA3 = molecular target: T12, RPS6KA3 (Homo sapiens, UniProt P51812); experiment: CETSA-MS, MDA-MB-231 intact cells; settings: 2 μM and 20 μM
T12 construct: endogenous in cells; host or cells: MDA-MB-231
T12 sequence (P51812 whole entry): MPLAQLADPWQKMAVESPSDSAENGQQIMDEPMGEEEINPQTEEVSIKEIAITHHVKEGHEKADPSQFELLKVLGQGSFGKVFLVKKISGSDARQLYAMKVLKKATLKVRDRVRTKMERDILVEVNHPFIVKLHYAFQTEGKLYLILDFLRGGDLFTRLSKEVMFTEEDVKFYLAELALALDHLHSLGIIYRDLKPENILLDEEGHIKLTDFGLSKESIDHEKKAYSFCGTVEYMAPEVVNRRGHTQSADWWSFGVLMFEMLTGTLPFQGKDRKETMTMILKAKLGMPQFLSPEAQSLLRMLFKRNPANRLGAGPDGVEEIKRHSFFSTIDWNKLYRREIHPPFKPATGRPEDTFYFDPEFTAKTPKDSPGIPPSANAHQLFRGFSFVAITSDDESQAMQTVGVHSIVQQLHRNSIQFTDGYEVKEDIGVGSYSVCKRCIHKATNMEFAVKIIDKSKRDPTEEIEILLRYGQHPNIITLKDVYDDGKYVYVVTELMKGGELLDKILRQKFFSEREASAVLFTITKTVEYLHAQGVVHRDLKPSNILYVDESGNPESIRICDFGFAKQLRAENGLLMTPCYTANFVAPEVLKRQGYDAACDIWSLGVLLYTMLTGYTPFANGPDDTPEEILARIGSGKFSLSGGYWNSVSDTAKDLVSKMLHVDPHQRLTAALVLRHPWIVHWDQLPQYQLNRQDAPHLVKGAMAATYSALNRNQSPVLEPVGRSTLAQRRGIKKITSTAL
Description: as §1, §2

SCP2 = molecular target: T13, SCP2 (Homo sapiens, UniProt P22307); experiment: CETSA-MS, MDA-MB-231 intact cells; settings: 2 μM and 20 μM
T13 construct: endogenous in cells; host or cells: MDA-MB-231
T13 sequence (P22307 whole entry): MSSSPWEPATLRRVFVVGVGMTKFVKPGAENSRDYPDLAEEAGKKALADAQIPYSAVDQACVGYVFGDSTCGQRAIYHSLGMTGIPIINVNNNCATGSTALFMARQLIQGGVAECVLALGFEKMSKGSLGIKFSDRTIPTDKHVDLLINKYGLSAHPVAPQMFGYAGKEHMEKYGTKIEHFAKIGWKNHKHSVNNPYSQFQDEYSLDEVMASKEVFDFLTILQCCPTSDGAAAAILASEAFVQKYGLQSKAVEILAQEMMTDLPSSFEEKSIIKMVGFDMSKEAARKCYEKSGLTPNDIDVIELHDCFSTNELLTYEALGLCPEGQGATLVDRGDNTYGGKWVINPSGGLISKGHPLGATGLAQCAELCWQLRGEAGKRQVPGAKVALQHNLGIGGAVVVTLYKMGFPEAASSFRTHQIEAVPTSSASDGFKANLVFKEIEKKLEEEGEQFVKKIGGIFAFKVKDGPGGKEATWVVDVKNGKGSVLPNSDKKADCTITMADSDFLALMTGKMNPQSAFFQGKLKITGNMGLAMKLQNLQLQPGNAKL
Description: as §1, §2

SIK2 = molecular target: T14, SIK2 (Homo sapiens, UniProt Q9H0K1); experiment: CETSA-MS, MDA-MB-231 intact cells; settings: 2 μM and 20 μM
T14 construct: endogenous in cells; host or cells: MDA-MB-231
Description: as §1, §2

STX5 = molecular target: T15, STX5 (Homo sapiens, UniProt Q13190); experiment: CETSA-MS, MDA-MB-231 intact cells; settings: 2 μM and 20 μM
T15 construct: endogenous in cells; host or cells: MDA-MB-231
T15 sequence (Q13190 whole entry): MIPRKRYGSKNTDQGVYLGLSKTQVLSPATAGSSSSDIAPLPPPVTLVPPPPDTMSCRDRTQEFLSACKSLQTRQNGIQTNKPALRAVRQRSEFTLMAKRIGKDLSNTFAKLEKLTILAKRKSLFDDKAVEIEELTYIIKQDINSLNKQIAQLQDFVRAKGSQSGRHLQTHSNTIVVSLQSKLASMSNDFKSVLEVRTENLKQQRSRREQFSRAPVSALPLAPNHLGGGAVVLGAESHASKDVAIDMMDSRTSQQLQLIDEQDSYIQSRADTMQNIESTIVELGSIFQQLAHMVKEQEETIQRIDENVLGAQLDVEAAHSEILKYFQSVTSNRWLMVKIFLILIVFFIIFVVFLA
Description: as §1, §2

TIMP2 = molecular target: T16, TIMP2 (Homo sapiens, UniProt P16035); experiment: CETSA-MS, MDA-MB-231 intact cells; settings: 2 μM and 20 μM
T16 construct: endogenous in cells; host or cells: MDA-MB-231
Description: as §1, §2

TLE5 = molecular target: T17, TLE5 (Homo sapiens, UniProt Q08117); experiment: CETSA-MS, MDA-MB-231 intact cells; settings: 2 μM and 20 μM
T17 construct: endogenous in cells; host or cells: MDA-MB-231
Description: as §1, §2

ZFR = molecular target: T18, ZFR (Homo sapiens, UniProt Q96KR1); experiment: CETSA-MS, MDA-MB-231 intact cells; settings: 2 μM and 20 μM
T18 construct: endogenous in cells; host or cells: MDA-MB-231
Description: as §1, §2

Hs578t cells = experiment: Cancer cell growth, 48 hours; settings: 5 μM or 10 μM, compared to Comparator 1 (FIG. 1)
Description: At the end of 48 hours, growth of cells was measured using standard techniques.

PARP in HCC-1937 = experiment: PARP cleavage after 72 hours treatment; settings: HCC-1937 (TNBC)
Description: (§3) The effects on the different treatment conditions on BUB 1 levels and PARP cleavage were also assessed. For both MNA-MB-231 cells, Compound 1 alone or with HCQ or SBI decreased BUB1 levels and cleaved PARP with […] decreases in cell viability observed for all treatments except Compound 1+SBI in MMA-MB-231 cells. The effects of Compound 1 with or without autophagy inhibitors was less pronounced in HCC-1937 cells.

PARP in MDA-MB-231 = experiment: PARP cleavage after 72 hours treatment; settings: MDA-MB-231 (TNBC)
Description: as §3

PARP in MDA-MB-468 = experiment: PARP cleavage after 72 hours treatment; settings: MDA-MB-468 (TNBC)
Description: as §3

HCC-1937 = experiment: Cell viability after 72 hours treatment; settings: HCC-1937 (TNBC)
Description: as §3

MDA-MB-231 = experiment: Cell viability after 72 hours treatment; settings: MDA-MB-231 (TNBC)
Description: as §3

MDA-MB-468 = experiment: Cell viability after 72 hours treatment; settings: MDA-MB-468 (TNBC)
Description: as §3

p21 = experiment: Western blot, MDA-MB-231 cells, 24 hours; settings: 2.5, 5, 10 μM, versus Comparator 1, 2 and 4
pRb = experiment: Western blot, MDA-MB-231 cells, 24 hours; settings: 2.5, 5, 10 μM, versus Comparator 1, 2 and 4
MDA-MB-231 cells = experiment: Annexin V/PI staining followed by FACS, 24 hours
Description: To determine the effect of the different treatment conditions on cell death, Annexin V/PI staining was performed.

CDK4/cyclin D1 [1] = molecular target: T19, CDK4/cyclin D1 (Homo sapiens, UniProt P11802); experiment: CDK4/cyclin D1 NanoBret IC50
Target sequence in this assay (P11802 whole entry): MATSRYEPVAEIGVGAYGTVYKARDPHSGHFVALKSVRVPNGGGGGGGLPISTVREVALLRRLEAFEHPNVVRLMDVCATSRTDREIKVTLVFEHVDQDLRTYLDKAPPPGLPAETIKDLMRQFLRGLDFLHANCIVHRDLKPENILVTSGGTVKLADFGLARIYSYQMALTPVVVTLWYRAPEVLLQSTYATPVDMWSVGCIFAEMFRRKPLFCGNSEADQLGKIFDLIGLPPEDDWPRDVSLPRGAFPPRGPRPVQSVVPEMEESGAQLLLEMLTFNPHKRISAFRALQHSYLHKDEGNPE
Target sequence in this assay (P24385 whole entry partner): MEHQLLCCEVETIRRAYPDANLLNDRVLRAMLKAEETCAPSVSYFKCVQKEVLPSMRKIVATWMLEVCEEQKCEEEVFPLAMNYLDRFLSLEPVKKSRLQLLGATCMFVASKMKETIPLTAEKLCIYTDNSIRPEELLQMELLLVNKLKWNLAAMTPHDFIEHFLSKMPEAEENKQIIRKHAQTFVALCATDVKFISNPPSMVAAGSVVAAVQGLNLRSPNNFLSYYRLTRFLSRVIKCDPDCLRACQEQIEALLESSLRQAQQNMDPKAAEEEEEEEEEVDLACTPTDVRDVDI

CDK4/cyclin D1 [2] = molecular target: T19, CDK4/cyclin D1; experiment: CDK4/cyclin D1 CETSA; set-up: endogenous in cells; host or cells: MDA-MB-231 (lysates and intact cells)
Description: Following treatment, cell lysates were thermally treated in a thermal gradient profile across a temperature range. Following the thermal shift, cell lysates were spun by centrifuge to pellet aggregate protein and the supernatant withdrawn. The supernatant was then denatured in buffer and heated to denature, reduce, and alkylate the supernatant proteins. Following heating and cooling to room temperature, cold acetone was added to the supernatant samples and proteins precipitated.
as §1, with “Pellets were then washed twice with cold acetone and the washed pellets prior to labeling.” left out
as §2
Target sequence in this assay (P11802 whole entry): as the sequence (P11802 whole entry) above

CN1CCN(c2ccc(Nc3ncc4cc(C#N)c(=O)n(C5CCCC5)c4n3)cc2)CC1 [Compound 1, 8-cyclopentyl-2-((4-(4-methylpiperazin-1-yl)phenyl)amino)-7-oxo-7,8-dihydropyrido[2,3-d]pyrimidine-6-carbonitrile]
Group (CETSA-MS thermal shift) (CELF1): Stabilization
Group (CETSA-MS thermal shift) (CLPP): Stabilization
Group (CETSA-MS thermal shift) (CPD): Stabilization
Group (CETSA-MS thermal shift) (ELL): Stabilization
Group (CETSA-MS thermal shift) (FGFRL1): Stabilization
Group (CETSA-MS thermal shift) (GSK3A): Stabilization
Group (CETSA-MS thermal shift) (HNRNPA2B1): Stabilization
Group (CETSA-MS thermal shift) (HNRNPC): Stabilization
Group (CETSA-MS thermal shift) (MAMDC2): Stabilization
Group (CETSA-MS thermal shift) (MAN2A1): Stabilization
Group (CETSA-MS thermal shift) (MAP3K20): Destabilization
Group (CETSA-MS thermal shift) (RPS6KA3): Destabilization
Group (CETSA-MS thermal shift) (SCP2): Destabilization
Group (CETSA-MS thermal shift) (SIK2): Stabilization
Group (CETSA-MS thermal shift) (STX5): Stabilization
Group (CETSA-MS thermal shift) (TIMP2): Stabilization
Group (CETSA-MS thermal shift) (TLE5): Destabilization
Group (CETSA-MS thermal shift) (ZFR): Stabilization
growth of cells (Hs578t cells): significantly inhibited
PARP Cleavage (PARP in HCC-1937): No
PARP Cleavage (PARP in MDA-MB-231): Yes
PARP Cleavage (PARP in MDA-MB-468): Yes
72 h-cell viability decrease (HCC-1937): 25%
72 h-cell viability decrease (MDA-MB-231): 75%
72 h-cell viability decrease (MDA-MB-468): 80%
p21 levels (p21): decreasing
pRb levels (pRb): decreasing
cell death (Annexin V/PI) (MDA-MB-231 cells; Compound 1, Comparator 1, 2 5 μM, Comparator 4 10 μM): ~40%
effect of zVAD-FMK on cell death, Annexin V/PI staining (MDA-MB-231 cells; zVAD-FMK 20 μM (FIG. 24)): unaffected by zVAD-FMK treatment
IC50 (CDK4/cyclin D1 [1]): 1 nM
CETSA (CDK4/cyclin D1 [2]): POS
